The subject of this test is hypoxia-inducible endogenous VEGF expression in HeLa cells. The experiment in a line: Hypoxia-inducible endogenous VEGF expression, VEGF ELISA of conditioned media (dose-response EC50). Format: cell-based. The conditions noted are these: Homo sapiens, HeLa cells under hypoxic conditions. The procedure:
The ability of the compounds of the invention to modulate hypoxia-inducible endogenous VEGF expression may be analyzed as follows. VEGF protein levels may be monitored by an ELISA assay (R&D Systems). Briefly, HeLa cells may be cultured for 24-48 hours under hypoxic conditions (1% O2, 5% CO2, balanced with nitrogen) in the presence or absence of a compound of the invention. The conditioned media may then be assayed by ELISA, and the concentration of VEGF calculated from the standard ELISA curve of each assay.
A dose-response analysis may be performed using the ELISA assay and conditions described above. The conditions for the dose-response ELISA are analogous to those described above. A series of, e.g., seven different concentrations may be analyzed. […] Dose-response curves may be plotted using percentage inhibition versus concentration of the compound, and EC50 and CC50 values may be generated for each compound with the maximal inhibition set as 100% and the minimal inhibition as 0%.

Some results are limits rather than exact numbers.

Results on 73 compounds are retold here after patent US8076352B2, “Administration of carboline derivatives useful in the treatment of cancer and other diseases” (PTC Therapeutics, Inc., priority 2004, dated 2011).

On to `COC(=O)N1CCc2c([nH]c3ccc(Cl)cc23)C1c1ccc(Cl)cc1` (stereo not shown) [Compound 70], for which the 50% effective concentration (EC50) is 8 to 40 nM. Compound `CCCOC(=O)N1CCc2c([nH]c3ccc(Cl)cc23)C1c1ccc(C#N)cc1` (stereo not shown) [Compound 71] had an EC50 of 8 to 40 nM. For the compound `CCCOC(=O)N1CCc2c([nH]c3ccc(Cl)cc23)C1c1cccc(Cl)c1` (stereo not shown) [Compound 72], the EC50 was 8 to 40 nM. Compound `ON1CCc2c([nH]c3ccc(Br)cc23)C1c1cccc(F)c1F` (stereo not shown) [Compound 73] showed an EC50 of 8 to 40 nM. For `CCCOC(=O)N1CCc2c([nH]c3ccc(Cl)cc23)C1c1cccc(F)c1` (stereo not shown) [Compound 75] the value was 8 to 40 nM; for `O=C(Oc1ccccc1)N1CCc2c([nH]c3ccc(Br)cc23)C1c1ccccc1` (stereo not shown) [Compound 76], 8 to 40 nM; for `CCOC(=O)N1CCc2c([nH]c3ccc(Cl)cc23)C1c1cc(F)cc(F)c1` (stereo not shown) [Compound 77], 8 to 40 nM.

Take `CCOC(=O)N1CCc2c([nH]c3ccc(Br)cc23)C1c1ccc(F)c(F)c1` (stereo not shown) [Compound 78]: the EC50 lay within 8 to 40 nM. For `CCCOC(=O)N1CCc2c([nH]c3ccc(Cl)cc23)C1c1cccc(C(F)(F)F)c1` (stereo not shown) [Compound 79] the value was 8 to 40 nM; for `CC(=O)N1CCc2c([nH]c3ccc(Br)cc23)C1c1cccc(C(F)(F)F)c1` (stereo not shown) [Compound 80], 8 to 40 nM; for `ON1CCc2c([nH]c3ccc(Br)cc23)C1c1ccc(Cl)cc1` (stereo not shown) [Compound 81], 8 to 40 nM. The same measure for `CCOC(=O)N1CCc2c([nH]c3ccc(Cl)cc23)C1c1cc(F)ccc1F` (stereo not shown) [Compound 82]: 8 to 40 nM.

`O=C(OCCCl)N1CCc2c([nH]c3ccc(Cl)cc23)C1c1cc(F)cc(F)c1` (stereo not shown) [Compound 83] registered an EC50 of 8 to 40 nM. For the compound `COC(=O)N1CCc2c([nH]c3ccc(Cl)cc23)C1c1cccc(F)c1` (stereo not shown) [Compound 84], the EC50 is 8 to 40 nM. The same measure for `CC(C)OC(=O)N1CCc2c([nH]c3ccc(Cl)cc23)C1c1cccc(C(F)(F)F)c1` (stereo not shown) [Compound 85]: 8 to 40 nM; for `CCCOC(=O)N1CCc2c([nH]c3ccc(Cl)cc23)C1c1cccc(OC)c1` (stereo not shown) [Compound 86]: 8 to 40 nM; for `CC(C)OC(=O)N1CCc2c([nH]c3ccc(Cl)cc23)C1c1cccc(Cl)c1` (stereo not shown) [Compound 87]: 8 to 40 nM. Take `COc1cccc(C2c3[nH]c4ccc(Cl)cc4c3CCN2C(=O)OC(C)C)c1` (stereo not shown) [Compound 88]: the EC50 was in the range of 8 to 40 nM. The same measure for `O=C(OCCCl)N1CCc2c([nH]c3ccc(Cl)cc23)C1c1ccc([N+](=O)[O-])cc1` (stereo not shown) [Compound 89]: 8 to 40 nM. The compound `CC(C)OC(=O)N1CCc2c([nH]c3ccc(Cl)cc23)C1c1cccc(F)c1` (stereo not shown) [Compound 90] showed an EC50 of 8 to 40 nM. For `CCOC(=O)N1CCc2c([nH]c3ccc(Cl)cc23)C1c1ccc(C)cc1` (stereo not shown) [Compound 91] the value was 8 to 40 nM; for `COC(=O)N1CCc2c([nH]c3ccc(Cl)cc23)C1c1cc(F)cc(F)c1` (stereo not shown) [Compound 92], 8 to 40 nM. For `CCOC(=O)N1CCc2c([nH]c3ccc(Cl)cc23)C1c1cccc(Br)c1` (stereo not shown) [Compound 93] the value was 8 to 40 nM. In turn, `CCCOC(=O)N1CCc2c([nH]c3ccc(Cl)cc23)C1c1ccccc1` (stereo not shown) [Compound 94] displayed an EC50 of 8 to 40 nM. The same measure for `CC(C)OC(=O)N1CCc2c([nH]c3ccc(Cl)cc23)C1c1cccc(Br)c1` (stereo not shown) [Compound 95]: 8 to 40 nM; for `COC(=O)N1CCc2c([nH]c3ccc(Cl)cc23)C1c1ccccc1` (stereo not shown) [Compound 96]: 8 to 40 nM; for `CCCOC(=O)N1CCc2c([nH]c3ccc(Cl)cc23)C1c1ccccc1F` (stereo not shown) [Compound 97]: 8 to 40 nM. For `CC(=O)N1CCc2c([nH]c3ccc(Br)cc23)C1c1cccc(Cl)c1` (stereo not shown) [Compound 98] the value was 8 to 40 nM; for `O=C(OCCCl)N1CCc2c([nH]c3ccc(Cl)cc23)C1c1cccc(Br)c1` (stereo not shown) [Compound 99], 8 to 40 nM.

Compound `CCOC(=O)N1CCc2c([nH]c3ccc(Cl)cc23)C1c1ccc(OCc2ccccc2)cc1` (stereo not shown) [Compound 100] had an EC50 of 8 to 40 nM. For `CC(C)OC(=O)N1CCc2c([nH]c3ccc(Cl)cc23)C1c1ccccc1` (stereo not shown) [Compound 101] the value was 8 to 40 nM; for `CC(=O)N1CCc2c([nH]c3ccc(Br)cc23)C1c1ccc(C(C)C)cc1` (stereo not shown) [Compound 102], 8 to 40 nM.

`O=C(OCCCl)N1CCc2c([nH]c3ccc(Cl)cc23)C1c1ccccc1F` (stereo not shown) [Compound 103]: the EC50 was 8 to 40 nM. As to `COC(=O)N1CCc2c([nH]c3ccc(Cl)cc23)C1c1cccc(Cl)c1` (stereo not shown) [Compound 104], the EC50 was 8 to 40 nM. The same measure for `CC(C)OC(=O)N1CCc2c([nH]c3ccc(Cl)cc23)C1c1ccccc1F` (stereo not shown) [Compound 105]: 8 to 40 nM; for `CCOC(=O)N1CCc2c([nH]c3ccc(Cl)cc23)C1c1ccccc1F` (stereo not shown) [Compound 106]: 8 to 40 nM; for `CCOC(=O)N1CCc2c([nH]c3ccc(Cl)cc23)C1c1cccc(OC)c1` (stereo not shown) [Compound 107]: 8 to 40 nM. With `COC(=O)N1CCc2c([nH]c3ccc(Cl)cc23)C1c1ccccc1F` (stereo not shown) [Compound 108], the EC50 lay within 8 to 40 nM. For `CCOC(=O)N1CCc2c([nH]c3ccc(Cl)cc23)C1c1cccc(C)c1` (stereo not shown) [Compound 109] the value was 8 to 40 nM; for `COc1ccc(C2c3[nH]c4ccc(Br)cc4c3CCN2O)cc1` (stereo not shown) [Compound 110], 8 to 40 nM; for `COC(=O)N1CCc2c([nH]c3ccc(Cl)cc23)C1c1ccc([N+](=O)[O-])cc1` (stereo not shown) [Compound 111], 8 to 40 nM.

Take `CC(C)c1ccc(C2NCCc3c2[nH]c2ccc(Br)cc32)cc1` (stereo not shown) [Compound 112]: the EC50 lay in the range of 8 to 40 nM. In the case of `CCOC(=O)N1CCc2c([nH]c3ccc(Br)cc23)C1c1ccc(OC)cc1` (stereo not shown) [Compound 112], the EC50 is < 8 nM. `CCOC(=O)N1CCc2c([nH]c3ccc(Cl)cc23)C1c1ccc2c(c1)OCO2` (stereo not shown) [Compound 113] yielded an EC50 of 8 to 40 nM. As for `O=C(OCCCl)N1CCc2c([nH]c3ccc(Cl)cc23)C1c1ccccc1` (stereo not shown) [Compound 114], the EC50 is 8 to 40 nM. For `CCOC(=O)N1CCc2c([nH]c3ccc(Br)cc23)C1c1cc(F)ccc1F` (stereo not shown) [Compound 115] the value was 8 to 40 nM; for `O=C(OCCCl)N1CCc2c([nH]c3ccc(Cl)cc23)C1c1cccc(F)c1` (stereo not shown) [Compound 116], 8 to 40 nM; for `COc1cccc(C2c3[nH]c4ccc(Cl)cc4c3CCN2C(=O)OCCCl)c1` (stereo not shown) [Compound 117], 8 to 40 nM. The same measure for `COC(=O)N1CCc2c([nH]c3ccc(Cl)cc23)C1c1ccc(C#N)cc1` (stereo not shown) [Compound 118]: 8 to 40 nM. The compound `CCOC(=O)N1CCc2c([nH]c3ccc(Cl)cc23)C1c1ccc(C#N)cc1` (stereo not shown) [Compound 120] returned an EC50 of 8 to 40 nM.

For `O=C(Oc1ccccc1)N1CCc2c([nH]c3ccc(Cl)cc23)C1c1ccccc1` (stereo not shown) [Compound 121], the EC50 lay within 8 to 40 nM. The same measure for `CC(C)COC(=O)N1CCc2c([nH]c3ccc(Cl)cc23)C1c1ccccc1` (stereo not shown) [Compound 122]: 8 to 40 nM.

The compound `Fc1cccc(C2NCCc3c2[nH]c2ccc(Cl)cc32)c1F` (stereo not shown) [Compound 123] registered an EC50 of 8 to 40 nM. For `Clc1ccc(C2NCCc3c2[nH]c2ccc(Cl)cc32)c(Cl)c1` (stereo not shown) [Compound 124] the value was 40 to 200 nM; for `COC(=O)N1CCc2c([nH]c3ccc(Cl)cc23)C1c1cccc(C(F)(F)F)c1` (stereo not shown) [Compound 125], 40 to 200 nM. The same measure for `CCOC(=O)N1CCc2c([nH]c3ccc(Cl)cc23)C1c1cc(=O)c2ccccc2o1` (stereo not shown) [Compound 126]: 40 to 200 nM. The same measure for `COC(=O)N1CCc2c([nH]c3ccc(Cl)cc23)C1c1cccc(OC)c1` (stereo not shown) [Compound 127]: 40 to 200 nM; for `CCOC(=O)N1CCc2c([nH]c3ccc(Cl)cc23)C1c1ccc(O)cc1` (stereo not shown) [Compound 128]: 40 to 200 nM; for `CC(=O)N1CCc2c([nH]c3ccc(Br)cc23)C1c1ccc(Br)cc1` (stereo not shown) [Compound 129]: 40 to 200 nM. For `COc1ccc(C2c3[nH]c4ccc(Br)cc4c3CCN2C(C)=O)cc1` (stereo not shown) [Compound 130], the EC50 lay in the range of 40 to 200 nM. In turn, `CC(=O)N1CCc2c([nH]c3ccc(Br)cc23)C1c1ccc(C)cc1` (stereo not shown) [Compound 131] registered an EC50 of 40 to 200 nM. For `Fc1cccc(C2NCCc3c2[nH]c2ccc(Br)cc32)c1F` (stereo not shown) [Compound 132] the value was 40 to 200 nM; for `COC(=O)N1CCc2c([nH]c3ccc(Cl)cc23)C1c1ccc2c(c1)OCO2` (stereo not shown) [Compound 133], 40 to 200 nM; for `COC(=O)N1CCc2c([nH]c3ccc(Cl)cc23)C1c1ccc(F)c(F)c1` (stereo not shown) [Compound 134], 40 to 200 nM. For `Clc1ccc(C2NCCc3c2[nH]c2ccc(Br)cc32)c(Cl)c1` (stereo not shown) [Compound 135] the value was 40 to 200 nM.

`CCOC(=O)Oc1ccc(C2c3[nH]c4ccc(Cl)cc4c3CCN2C(=O)OCC)cc1` (stereo not shown) [Compound 136] showed an EC50 of 40 to 200 nM. For `Clc1cccc(C2NCCc3c2[nH]c2ccc(Br)cc32)c1` (stereo not shown) [Compound 137] the value was 40 to 200 nM; for `ON1CCc2c([nH]c3ccc(Br)cc23)C1c1ccccc1` (stereo not shown) [Compound 138], 40 to 200 nM; for `CCOC(=O)N1CCc2c([nH]c3ccc(Cl)cc23)C1c1cccc([N+](=O)[O-])c1` (stereo not shown) [Compound 139], 40 to 200 nM. The same measure for `O=C(NC1CCCCC1)N1CCc2c([nH]c3ccc(Br)cc23)C1c1cccc(Cl)c1` (stereo not shown) [Compound 140]: 40 to 200 nM; for `CCOC(=O)N1CCc2c([nH]c3ccc(Cl)cc23)C1c1ccc(Cl)cc1Cl` (stereo not shown) [Compound 141]: 40 to 200 nM. For `COc1ccc(C2c3[nH]c4ccc(Cl)cc4c3CCN2C(=O)Nc2ccccc2OC)cc1` (stereo not shown) [Compound 142] the value was 40 to 200 nM; for `CCC(=O)N1CCc2c([nH]c3ccc(Cl)cc23)C1c1ccc(OC)cc1` (stereo not shown) [Compound 143], 40 to 200 nM.
